This is an account of results in article PMC6099728, “Investigation of Hydro-Lipophilic Properties of N-Alkoxyphenylhydroxynaphthalenecarboxamides” (Molecules : A Journal of Synthetic Chemistry and Natural …, 2018).

This data set is described as follows: Lipophilicity determination by RP-HPLC (capacity factor k / logk). Type of data set: physicochemical. The following applies: for logk: isocratic MeOH 72%/H2O 28%, C18 column, 40 °C; for πC (distributive parameter π calculated from logk) / πA (distributive parameter π calculated from logk) / πB (distributive parameter π calculated from logk): π = logkS − logkU; for πC (distributive parameter π calculated from logk): unsubstituted 1c as reference; for πA (distributive parameter π calculated from logk): unsubstituted 1a as reference; for πB (distributive parameter π calculated from logk): unsubstituted 1b as reference. From the text:
A HPLC separation module Waters Alliance 2695 XE equipped with a Waters Dual Absorbance Detector 2486 (Waters Corp., Milford, MA, USA) was used. A chromatographic column Symmetry® C18 5 µm, 4.6 × 250 mm, Part No. W21751W016 (Waters Corp.) was used. The HPLC separation process was monitored by Empower® 3 Chromatography Manager Software (Waters Corp.). Isocratic elution by a mixture of MeOH p.a. (72%) and H2O-HPLC Mili-Q grade (28%) as a mobile phase was used. The total flow of the column was 1.0 mL/min, the injection was 20 μL, the column temperature was 40 °C, and the sample temperature was 10 °C. A detection wavelength of 210 nm was chosen. The KI methanolic solution was used for the determination of dead time (tD). Retention times (tR) were measured in minutes. Capacity factors k were calculated using the Empower® 3 Chromatography Manager Software according to the formula k = (tR − tD)/tD, where tR is the retention time of the solute, while tD is the dead time obtained using an unretained analyte. Each experiment was repeated three times. Logk, which was calculated from the capacity factor k, is used as the lipophilicity index converted to the logP scale.

For `CC(C)Oc1ccc(NC(=O)c2c(O)ccc3ccccc23)cc1` [16c], for the setting “series C”, the logk turned out to be 0.1619 and the “πC (distributive parameter π calculated from logk)” value is 0.55.

On to `CCCCOc1ccc(NC(=O)c2cc3ccccc3cc2O)cc1` [13a], for which, for the setting “series A”, the logk came to 0.8961 and the “πA (distributive parameter π calculated from logk)” value is reported as 1.08.

Regarding `CCC(C)Oc1cccc(NC(=O)c2ccc3ccccc3c2O)c1` (stereo not drawn) [18b], where the note is “series B”, the logk amounted to 1.1291 and the “πB (distributive parameter π calculated from logk)” value is recorded as 0.95.

`CCC(C)Oc1cccc(NC(=O)c2cc3ccccc3cc2O)c1` (stereo not drawn) [18a]: under “series A”, the logk was 0.8670 and the “πA (distributive parameter π calculated from logk)” value is 0.95.

As to `CCOc1ccc(NC(=O)c2ccc3ccccc3c2O)cc1` [7b], under “series B”, the logk amounted to 0.7700 and the “πB (distributive parameter π calculated from logk)” value is recorded as 0.15.

As for `CC(C)Oc1cccc(NC(=O)c2ccc3ccccc3c2O)c1` [15b], for the setting “series B”, the logk is given as 0.9355 and the “πB (distributive parameter π calculated from logk)” value is 0.61.

Take `COc1ccccc1NC(=O)c1c(O)ccc2ccccc12` [2c]: under “series C”, the logk worked out at 0.2518 and the “πC (distributive parameter π calculated from logk)” value is listed as 0.05.

For the compound `CC(C)Oc1ccc(NC(=O)c2ccc3ccccc3c2O)cc1` [16b], for the setting “series B”, the logk is given as 0.8648 and the “πB (distributive parameter π calculated from logk)” value is 0.59.

For the compound `CCCCOc1ccccc1NC(=O)c1c(O)ccc2ccccc12` [11c], under “series C”, the logk stood at 0.8578 and the “πC (distributive parameter π calculated from logk)” value is reported as 1.04.

In the case of `COc1ccc(NC(=O)c2ccc3ccccc3c2O)cc1` [4b], where the note is “series B”, the logk came out at 0.6239 and the “πB (distributive parameter π calculated from logk)” value is −0.15.

In the case of `CCCOc1ccc(NC(=O)c2ccc3ccccc3c2O)cc1` [10b], under “series B”, the logk is recorded as 0.9588 and the “πB (distributive parameter π calculated from logk)” value was 0.75.

On to `COc1ccccc1NC(=O)c1cc2ccccc2cc1O` [2a], for which, under “series A”, the logk is 0.3982 and the “πA (distributive parameter π calculated from logk)” value was 0.09.
